We go through 7 molecules from patent US11970511B2, “Tetrahydropyran-based thiodisaccharide mimics as Galectin-3 inhibitors” (BRISTOL-MYERS SQUIBB COMPANY, priority 2018, dated 2024).

Chain of His-tagged recombinant human Gal-3 (hGal-3) (P17931 whole entry): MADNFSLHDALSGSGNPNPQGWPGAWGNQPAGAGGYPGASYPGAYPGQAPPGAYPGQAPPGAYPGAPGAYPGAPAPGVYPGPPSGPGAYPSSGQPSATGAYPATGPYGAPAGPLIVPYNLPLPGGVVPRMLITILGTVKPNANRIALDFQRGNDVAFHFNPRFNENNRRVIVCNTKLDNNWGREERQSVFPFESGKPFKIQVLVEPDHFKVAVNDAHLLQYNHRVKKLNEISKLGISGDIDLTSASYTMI

The experiment addresses His-tagged recombinant human Gal-3 (hGal-3) (Homo sapiens, UniProt P17931). Nature of the experiment: Gal-3 HTRF assay: His-tagged hGal-3 binding to B-ASF, Anti-His terbium antibody / Streptavidin d2 detection.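 Further: compound preincubated 30 min with hGal-3, then 1 h with B-ASF, DMSO wells with B-ASF serving as positive control and those lacking B-ASF as negative control.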 As to conditions: 15 nM hGal-3, 15 nM B-ASF, three replicates, room temperature. On the technique in general: Time-resolved FRET reads energy transfer from a long-lived donor to a nearby acceptor.
For orientation: IC50 means the concentration that gives 50% inhibition. On to `COc1ncc(-c2cn(C3COCC(SC4OC(CO)C(O)C(n5cc(-c6cc(F)c(F)c(F)c6)nn5)C4OCC(=O)N4CC(C)OC(C)C4)C3O)nn2)cn1` (single isomer, unassigned) [Example 32], for which the IC50 stood at 0.019 µM.

Consider `COc1cnc(-c2cn([C@H]3COC[C@@H](S[C@@H]4O[C@H](CO)[C@H](O)[C@H](n5cc(-c6cc(F)c(F)c(F)c6)nn5)[C@H]4OC)[C@@H]3O)nn2)nc1N` [Example 21, (2R,3R,4S,5R,6S)-6-(((3R,4R,5S)-5-(4-(4-amino-5-methoxypyrimidin-2-yl)-1H-1,2,3-triazol-1-yl)-4-hydroxytetrahydro-2H-pyran-3-yl)thio)-2-(hydroxymethyl)-5-methoxy-4-(4-(3,4,5-trifluorophenyl)-1H-1,2,3-triazol-1-yl)tetrahydro-2H-pyran-3-ol], for which the IC50 was 0.023 µM. In the case of `O=C(O)COC1C(SC2COCC(n3cc(-c4cncnc4)nn3)C2O)OC(CO)C(O)C1n1cc(-c2cc(F)c(F)c(F)c2)nn1` [Example 26, 2-(((2S,3R,4S,5R,6R)-5-hydroxy-2-(((3R,4R,5S)-4-hydroxy-5-(4-(pyrimidin-5-yl)-1H-1,2,3-triazol-1-yl)tetrahydro-2H-pyran-3-yl)thio)-6-(hydroxymethyl)-4-(4-(3,4,5-trifluorophenyl)-1H-1,2,3-triazol-1-yl)tetranydro-2H-pyran-3-yl)oxy)acetic acid] it was 0.015 µM; in that of `COC(=O)COC1C(SC2COCC(n3cc(-c4cncnc4)nn3)C2O)OC(CO)C(O)C1n1cc(-c2cc(F)c(F)c(F)c2)nn1` [Example 27, methyl 2-(((2S,3R,4S,5R,6R)-5-hydroxy-2-(((3R,4R,5S)-4-hydroxy-5-(4-(pyriin-5-yl)-1H-1,2,3-triazol-1-yl)tetrahydro-2H-pyran-3-yl)thio)-6-(hydroxymethyl)-4-(4-(3,4,5-trifluorophenyl)-1H-1,2,3-triazol-1-yl)tetrahydro-2H-pyran-3-yl)oxy)acetate], 0.017 µM. In the case of `O=C(CO[C@@H]1[C@@H](n2cc(-c3cc(F)c(F)c(F)c3)nn2)[C@@H](O)[C@@H](CO)O[C@H]1S[C@@H]1COC[C@H](n2cc(-c3cncnc3)nn2)[C@H]1O)N1CCOCC1` [Example 28, 2-(((2S,3R,4S,5R,6R)-5-hydroxy-2-(((3R,4R,5S)-4-hydroxy-5-(4-(pyrimidin-5-yl)-1H-1,2,3-triazol-1-yl)tetrahydro-2H-pyran-3-yl)thio)-6-(hydroxymethyl)-4-(4-(3,4,5-trifluorophenyl)-1H-1,2,3-triazol-1-yl)tetrahydro-2H-pyran-3-yl)oxy)-1-morpholinoethan-1-one] it was 0.01 µM; in that of `CN(C(=O)COC1C(SC2COCC(n3cc(-c4cncnc4)nn3)C2O)OC(CO)C(O)C1n1cc(-c2cc(F)c(F)c(F)c2)nn1)c1ccccc1` [Example 29, 2-(((2S,3R,4S,5R,6R)-5-hydroxy-2-(((3R,4R,5S)-4-hydroxy-5-(4-(pyrimidin-5-yl)-1H-1,2,3-triazol-1-yl)tetrahydro-2H-pyran-3-yl)thio)-6-(hydroxymethy)-4-(4-(3,4,5-trifluorophenyl)-1H-1,2,3-triazol-1-yl)-2H-pyran-3-yl)oxy)-N-methyl-N-phenylacetamide], 0.025 µM; in that of `COc1ncc(-c2cn([C@H]3COC[C@@H](S[C@@H]4O[C@H](CO)[C@H](O)[C@H](n5cc(-c6cc(F)c(F)c(F)c6)nn5)[C@H]4OCC(=O)O)[C@@H]3O)nn2)cn1` [Example 30, 2-(((2S,3R,4S,5R,6R)-5-hydroxy-2-(((3R,4R,5S)-4-hydroxy-5-(4-(2-methoxypyrimidin-5-yl)-1H-1,2,3-triazol-1-yl)tetrahydro-2H-pyran-3-yl)thio)-6-(hydroxymethyl)-4-(4-(3,4,5-trifluorophenyl)-1H-1,2,3-triazol-1-yl)tetrahydro-2H-pyran-3-yl)oxy)acetic acid], 0.008 µM.
